The source made the active and inactive calls. The calls are words filed in the database; no cut-off is given here.

In assay [1] the target is T1, Casein kinase I isoform delta (Homo sapiens, UniProt P48730). Nature of the assay: Inhibition of CK1delta (unknown origin) using Light-TopoIla(Thr1342) peptide as substrate incubated for 10 mins in presence of ATP by TR-FRET assay.
Target sequence in this assay (P48730 whole entry, canonical isoform): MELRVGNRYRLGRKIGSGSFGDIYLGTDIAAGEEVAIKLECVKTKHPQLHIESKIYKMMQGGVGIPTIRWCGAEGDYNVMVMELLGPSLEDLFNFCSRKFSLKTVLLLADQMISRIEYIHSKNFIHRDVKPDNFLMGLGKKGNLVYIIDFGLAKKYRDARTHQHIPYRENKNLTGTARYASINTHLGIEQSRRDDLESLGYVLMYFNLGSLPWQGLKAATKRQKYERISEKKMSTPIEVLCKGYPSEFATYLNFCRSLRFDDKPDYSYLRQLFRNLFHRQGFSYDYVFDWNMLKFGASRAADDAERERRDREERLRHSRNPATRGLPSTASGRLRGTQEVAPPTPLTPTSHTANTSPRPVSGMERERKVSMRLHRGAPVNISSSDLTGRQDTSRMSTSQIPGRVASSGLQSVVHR
Assay [2] addresses T1, Casein kinase I isoform delta. Nature of the assay: Inhibition of N-terminal His-tagged CK1delta (unknown origin) expressed in Escherichia coli using Light-TopoIla(Thr1342) peptide as substrate at 10 uM incubated for 10 mins in presence of ATP by TR-FRET assay.
Target sequence in this assay (P48730 whole entry, looked up, canonical isoform): as the sequence (P48730 whole entry, canonical isoform) above
For assay [3], the target named is Casein kinase I isoform epsilon (Homo sapiens, UniProt P49674). Description: Inhibition of CK1epsilon (unknown origin).
Sequence of Casein kinase I isoform epsilon (P49674 whole entry, canonical isoform): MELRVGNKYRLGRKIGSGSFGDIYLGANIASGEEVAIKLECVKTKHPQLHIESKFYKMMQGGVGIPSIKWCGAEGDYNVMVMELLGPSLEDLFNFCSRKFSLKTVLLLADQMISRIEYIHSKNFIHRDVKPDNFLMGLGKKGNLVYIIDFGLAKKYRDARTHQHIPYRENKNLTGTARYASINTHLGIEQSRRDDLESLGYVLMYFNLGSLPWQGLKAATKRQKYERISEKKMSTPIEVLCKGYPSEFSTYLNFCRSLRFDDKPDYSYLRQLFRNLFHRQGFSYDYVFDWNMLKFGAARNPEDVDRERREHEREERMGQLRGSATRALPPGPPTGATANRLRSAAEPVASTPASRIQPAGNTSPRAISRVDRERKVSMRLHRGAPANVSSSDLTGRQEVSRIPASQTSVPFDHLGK
Assay [4] concerns the target T1, Casein kinase I isoform delta. Description: Inhibition of CK1delta (unknown origin).
Target sequence in this assay (P48730 whole entry, canonical isoform): as the sequence (P48730 whole entry, canonical isoform) above
The next assay deals with U2OS. Description: Antiproliferative activity against human U2OS cells assessed as reduction in cell proliferation incubated for 72 hrs by Cell Titer Glo assay. In kind it is functional, cell-based.
The subject of another assay is T-24. Nature of the assay: Antiproliferative activity against human T24 cells assessed as reduction in cell proliferation incubated for 72 hrs by Cell Titer Glo assay. In kind it is functional, cell-based. The following applies: T-24, 72 h.
In a further assay the test system is UMUC3. Nature of the assay: Antiproliferative activity against human UMUC3 cells assessed as reduction in cell proliferation incubated for 72 hrs by Cell Titer Glo assay. The note with it: UMUC3, 72 h. Type of assay: functional, cell-based.
In another assay the test system is 5637. Description: Antiproliferative activity against human 5637 cells assessed as reduction in cell proliferation incubated for 72 hrs by Cell Titer Glo assay. In kind it is functional, cell-based. The following applies: Homo sapiens, 5637, 72 h.

With `Fc1ccc2[nH]c(CNc3nc(N4CCOCC4)nc4c3ncn4Cc3cccc4ccccc34)nc2c1F`, the IC50 in assay [1] is more than 10000 nM.
`Fc1ccc2[nH]c(CNc3nc(N4CCOCC4)nc4c3ncn4CCc3cccc(Cl)c3)nc2c1F`: the inhibition result in assay [2] was “inactive”. In addition, the concentration for half-maximal inhibition (IC50) in assay [1] is more than 10000 nM.
Regarding `CCOc1ccc(-n2cnc3c(NCc4nc5c(F)c(F)ccc5[nH]4)nc(N4CCOCC4)nc32)cc1`, in assay [1], the 50% inhibitory concentration (IC50) is more than 10000 nM.
On to `Fc1ccc2[nH]c(CNc3nc(N4CCOCC4)nc4c3ncn4-c3ccc4c(c3)OCCO4)nc2c1F`, for which the IC50 in assay [1] is more than 10000 nM.
Turning to `Fc1ccc2[nH]c(CNc3nc(N4CCOCC4)nc4c3ncn4CCc3ccc(C(F)(F)F)cc3)nc2c1F`, in assay [2], the inhibition entry was “inactive”. For the same compound, the IC50 in assay [1] is more than 10000 nM.
For the compound `Fc1cccc(Cn2cnc3c(NCc4nc5c(F)c(F)ccc5[nH]4)nc(N4CCOCC4)nc32)c1`, in assay [1], the 50% inhibitory concentration (IC50) was more than 10000 nM.
For `O=C(Nc1nc2cc(Cl)c(F)cc2[nH]1)c1coc(NC(=O)c2ccccc2OC(F)(F)F)n1`, the IC50 in assay [3] was found to be 33 nM; in assay [4], 42 nM.
`COc1ccc(-n2cnc3c(NCc4nc5c(F)c(F)ccc5[nH]4)nc(N4CCOCC4)nc32)cc1`: the 50% effective concentration (EC50) in the assay with U2OS was found to be 164 nM; with T-24 it was 95 nM; with UMUC3 it was 5780 nM; in the assay on 5637, 106 nM.
Take `N#Cc1ccc(CCn2cnc3c(NCc4nc5c(F)c(F)ccc5[nH]4)nc(N4CCOCC4)nc32)cc1`: the half-inhibitory concentration (IC50) in assay [1] was more than 10000 nM.
For `Fc1cccc(-n2cnc3c(NCc4nc5c(F)c(F)ccc5[nH]4)nc(N4CCOCC4)nc32)c1`, the EC50 came to 9 nM with U2OS, 8 nM in the assay with T-24, 26 nM in the assay on UMUC3 and 6 nM with 5637.
Take `Fc1ccc2[nH]c(CNc3nc(N4CCOCC4)nc4c3ncn4-c3ccc4ncsc4c3)nc2c1F`: the half-inhibitory concentration (IC50) in assay [1] was more than 10000 nM.
On to `Fc1cc(F)cc(CCn2cnc3c(NCc4nc5c(F)c(F)ccc5[nH]4)nc(N4CCOCC4)nc32)c1`, for which the half-inhibitory concentration (IC50) in assay [1] is more than 10000 nM.
In the case of `Fc1ccc2[nH]c(CNc3nc(N4CCOCC4)nc4c3ncn4CCc3cccc(C(F)(F)F)c3)nc2c1F`, in assay [1], the concentration for half-maximal inhibition (IC50) was more than 10000 nM.
With `Fc1cccc(CCn2cnc3c(NCc4nc5c(F)c(F)ccc5[nH]4)nc(N4CCOCC4)nc32)c1`, the IC50 in assay [1] is more than 10000 nM.
Consider `CC(C)Oc1ccc(-n2cnc3c(NCc4nc5c(F)c(F)ccc5[nH]4)nc(N4CCOCC4)nc32)cc1`, for which the inhibition result in assay [2] was “inactive”. Moreover, in assay [1], the IC50 is more than 10000 nM.
As for `Fc1ccc2[nH]c(CNc3nc(N4CCOCC4)nc4c3ncn4-c3ccc4ccccc4c3)nc2c1F`, the 50% effective concentration (EC50) amounted to 373 nM in the assay with U2OS, 265 nM with T-24, 540 nM in the assay on UMUC3 and 314 nM in the assay with 5637. The IC50 in assay [1] is more than 10000 nM.
Regarding `Fc1ccc2[nH]c(CNc3nc(N4CCOCC4)nc4c3ncn4Cc3ccc4ccccc4c3)nc2c1F`, the IC50 in assay [1] is more than 10000 nM.
`Fc1ccc2[nH]c(CNc3nc(N4CCOCC4)nc4c3ncn4CCc3cccc(Br)c3)nc2c1F`: the IC50 in assay [1] was more than 10000 nM.

(Values after ChEMBL document CHEMBL5338789, “Structure-Based Development of Isoform-Selective Inhibitors of Casein Kinase 1ε vs Casein Kinase 1δ” (J Med Chem, 2023).)
